Assay results from patent US10206394B2, “Herbicidal compounds” (Syngenta Participations AG, priority 2014, dated 2019).
Like-named read-outs stand apart in the source and are kept apart here.

Legend:
Experiment in all cases: Glasshouse assay for herbicidal activity (pre- and post-emergence), percentage phytotoxicity
Type in all cases: in vivo
Lolium perenne (LOLPE) = conditions: Lolium perenne
Summary of the method: (§1)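 Sow seed in standard soil in pots; apply test herbicide after 1 day (PRE) or about 12 days (POST). Grow on in the glasshouse, watering twice daily, cool-season species at 20/16 °C and warm-season at 24/18 °C. Score visible damage (0–100%) at 20 or 15 DAA respectively.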

[1] = system: Echinochloa crus-galli (ECHCG); conditions: Echinochloa crus-galli
Summary of the method: as §1

Avena fatua (AVEFA) = conditions: Avena fatua
Summary of the method: as §1

[2] = system: Alopecurus myosuroides (ALOMY); conditions: Alopecurus myosuroides
Summary of the method: as §1

[3] = post-emergence, 360 h, 250 g/ha, post-emergence, 15 DAA, visual assessment (100%=total damage, 0%=no damage), read-out: Post-emergence herbicidal activity (percentage phytotoxicity) LOLPE POST
[4] = pre-emergence, 480 h, 250 g/ha, pre-emergence, 20 DAA, visual assessment (100%=total damage, 0%=no damage), read-out: Pre-emergence herbicidal activity (percentage phytotoxicity) LOLPE PRE
[5] = post-emergence, 360 h, 250 g/ha, post-emergence, 15 DAA, visual assessment (100%=total damage, 0%=no damage), read-out: Post-emergence herbicidal activity (percentage phytotoxicity) ECHCG POST
[6] = pre-emergence, 480 h, 250 g/ha, pre-emergence, 20 DAA, visual assessment (100%=total damage, 0%=no damage), read-out: Pre-emergence herbicidal activity (percentage phytotoxicity) ECHCG PRE
[7] = post-emergence, 360 h, 250 g/ha, post-emergence, 15 DAA, visual assessment (100%=total damage, 0%=no damage), read-out: Post-emergence herbicidal activity (percentage phytotoxicity) AVEFA POST
[8] = pre-emergence, 480 h, 250 g/ha, pre-emergence, 20 DAA, visual assessment (100%=total damage, 0%=no damage), read-out: Pre-emergence herbicidal activity (percentage phytotoxicity) AVEFA PRE
[9] = post-emergence, 360 h, 250 g/ha, post-emergence, 15 DAA, visual assessment (100%=total damage, 0%=no damage), read-out: Post-emergence herbicidal activity (percentage phytotoxicity) ALOMY POST
[10] = pre-emergence, 480 h, 250 g/ha, pre-emergence, 20 DAA, visual assessment (100%=total damage, 0%=no damage), read-out: Pre-emergence herbicidal activity (percentage phytotoxicity) ALOMY PRE
[11] = post-emergence, 360 h, POST-emergence, rate 250 g/ha, visual score 15 DAA (100%=total damage, 0%=no damage), read-out: Post-emergence herbicidal activity (percentage phytotoxicity) LOLPE POST
[12] = pre-emergence, 480 h, PRE-emergence, rate 250 g/ha, visual score 20 DAA (100%=total damage, 0%=no damage), read-out: Pre-emergence herbicidal activity (percentage phytotoxicity) LOLPE PRE
[13] = post-emergence, 360 h, POST-emergence, rate 250 g/ha, visual score 15 DAA (100%=total damage, 0%=no damage), read-out: Post-emergence herbicidal activity (percentage phytotoxicity) ECHCG POST
[14] = pre-emergence, 480 h, PRE-emergence, rate 250 g/ha, visual score 20 DAA (100%=total damage, 0%=no damage), read-out: Pre-emergence herbicidal activity (percentage phytotoxicity) ECHCG PRE
[15] = post-emergence, 360 h, POST-emergence, rate 250 g/ha, visual score 15 DAA (100%=total damage, 0%=no damage), read-out: Post-emergence herbicidal activity (percentage phytotoxicity) AVEFA POST
[16] = pre-emergence, 480 h, PRE-emergence, rate 250 g/ha, visual score 20 DAA (100%=total damage, 0%=no damage), read-out: Pre-emergence herbicidal activity (percentage phytotoxicity) AVEFA PRE
[17] = post-emergence, 360 h, POST-emergence, rate 250 g/ha, visual score 15 DAA (100%=total damage, 0%=no damage), read-out: Post-emergence herbicidal activity (percentage phytotoxicity) ALOMY POST
[18] = pre-emergence, 480 h, PRE-emergence, rate 250 g/ha, visual score 20 DAA (100%=total damage, 0%=no damage), read-out: Pre-emergence herbicidal activity (percentage phytotoxicity) ALOMY PRE

Row | Compound | pest or weed control at 250 g/ha (Lolium perenne (LOLPE); [3]) | pest or weed control at 250 g/ha (Lolium perenne (LOLPE); [4]) | pest or weed control at 250 g/ha [1, 5] | pest or weed control at 250 g/ha [1, 6] | pest or weed control at 250 g/ha (Avena fatua (AVEFA); [7]) | pest or weed control at 250 g/ha (Avena fatua (AVEFA); [8]) | pest or weed control at 250 g/ha [2, 9] | pest or weed control at 250 g/ha [2, 10] | pest or weed control at 250 g/ha (Lolium perenne (LOLPE); [11]) | pest or weed control at 250 g/ha (Lolium perenne (LOLPE); [12]) | pest or weed control at 250 g/ha [1, 13] | pest or weed control at 250 g/ha [1, 14] | pest or weed control at 250 g/ha (Avena fatua (AVEFA); [15]) | pest or weed control at 250 g/ha (Avena fatua (AVEFA); [16]) | pest or weed control at 250 g/ha [2, 17] | pest or weed control at 250 g/ha [2, 18] | other results
1 | COCCCNC(=O)CC1CC(OC(=O)C(C)(C)C)=C(c2c(C)cc(C)cc2C)C1=O (stereo not shown) [Compound P10] |  |  |  |  |  |  |  |  |  |  |  |  |  |  |  |  | pest or weed control at 250 g/ha (Lolium perenne (LOLPE); post-emergence, 360 h, Rate 250 g/ha, post-emergence, visual assessment 15 DAA, 100%=total damage, 0%=no damage, read-out: Post-emergence herbicidal activity (percentage phytotoxicity) LOLPE POST): 90%; pest or weed control at 250 g/ha (Lolium perenne (LOLPE); pre-emergence, 480 h, Rate 250 g/ha, pre-emergence, visual assessment 20 DAA, 100%=total damage, 0%=no damage, read-out: Pre-emergence herbicidal activity (percentage phytotoxicity) LOLPE PRE): 90%; pest or weed control at 250 g/ha ([1]; post-emergence, 360 h, Rate 250 g/ha, post-emergence, visual assessment 15 DAA, 100%=total damage, 0%=no damage, read-out: Post-emergence herbicidal activity (percentage phytotoxicity) ECHCG POST): 90%; pest or weed control at 250 g/ha ([1]; pre-emergence, 480 h, Rate 250 g/ha, pre-emergence, visual assessment 20 DAA, 100%=total damage, 0%=no damage, read-out: Pre-emergence herbicidal activity (percentage phytotoxicity) ECHCG PRE): 90%; pest or weed control at 250 g/ha (Avena fatua (AVEFA); post-emergence, 360 h, Rate 250 g/ha, post-emergence, visual assessment 15 DAA, 100%=total damage, 0%=no damage, read-out: Post-emergence herbicidal activity (percentage phytotoxicity) AVEFA POST): 90%; pest or weed control at 250 g/ha (Avena fatua (AVEFA); pre-emergence, 480 h, Rate 250 g/ha, pre-emergence, visual assessment 20 DAA, 100%=total damage, 0%=no damage, read-out: Pre-emergence herbicidal activity (percentage phytotoxicity) AVEFA PRE): 60%; pest or weed control at 250 g/ha ([2]; post-emergence, 360 h, Rate 250 g/ha, post-emergence, visual assessment 15 DAA, 100%=total damage, 0%=no damage, read-out: Post-emergence herbicidal activity (percentage phytotoxicity) ALOMY POST): 90%; pest or weed control at 250 g/ha ([2]; pre-emergence, 480 h, Rate 250 g/ha, pre-emergence, visual assessment 20 DAA, 100%=total damage, 0%=no damage, read-out: Pre-emergence herbicidal activity (percentage phytotoxicity) ALOMY PRE): 90%
2 | Cc1cc(C)c(C2C(=O)CC(CC(=O)NCc3ccccc3Cl)C2=O)c(C)c1 (stereo not shown) [Compound B17] | 70% | 90% | 70% | 90% | 50% | 0% | 40% | 20% |  |  |  |  |  |  |  |  | 
3 | CCc1cc(OCC(F)(F)F)cc(C)c1C1C(=O)CC(CC(=O)N2CCOCC2)C1=O (stereo not shown) [Compound B164] | 100% | 100% | 100% | 100% | 90% | 100% | 100% | 100% |  |  |  |  |  |  |  |  | 
4 | COCC(C)NC(=O)CC1CC(=O)C(c2c(C)cc(-n3cc(Cl)cn3)cc2C)C1=O (stereo not shown) [Compound B309] |  |  |  |  |  |  |  |  | 60% | 80% | 100% | 100% | 100% | 80% | 100% | 90% | 
5 | CCNC(=O)CC1CC(=O)C(c2c(C)cc(-c3ncc(F)cc3F)cc2C)C1=O (stereo not shown) [Compound B201] |  |  |  |  |  |  |  |  | 100% | 100% | 100% | 100% | 100% | 100% | 100% | 100% | 
